Data: ChEMBL document CHEMBL1909046, “DrugMatrix in vitro pharmacology data”
Where a SMILES comes first, the peptide text is derived from it. Bridges are numbered along the chain shown (N, C = ends). [ ]: non-standard residue; d: D form. The star is where a group is joined. Threoninol(2S,3R) = C[C@@H](O)[C@H](CO)N*

How the values were obtained:
Cytochrome P450 2D6 = Cytochrome P450 2D6 (Homo sapiens, UniProt P10635); details: bti-tn-5b1-4; also: in other assays of this panel Not Active means under 50% inhibition at 10 µM
[1] = target: Mitogen-activated protein kinase 1 (Homo sapiens, UniProt P28482); assay: DRUGMATRIX: Protein Serine/Threonine Kinase, ERK2 enzyme inhibition (substrate: Myelin Basic Protein); design: species or system Escherichia coli; details: Not Active = under 50% inhibition at 10 µM
[2] = target: T1, Muscarinic acetylcholine receptor M2 (Homo sapiens, UniProt P08172); assay type: cell membranes, CHO-K1, Membrane; details: cho-k1; also: in other assays of this panel Not Active means under 50% inhibition at 10 µM
T1 sequence (P08172 whole entry): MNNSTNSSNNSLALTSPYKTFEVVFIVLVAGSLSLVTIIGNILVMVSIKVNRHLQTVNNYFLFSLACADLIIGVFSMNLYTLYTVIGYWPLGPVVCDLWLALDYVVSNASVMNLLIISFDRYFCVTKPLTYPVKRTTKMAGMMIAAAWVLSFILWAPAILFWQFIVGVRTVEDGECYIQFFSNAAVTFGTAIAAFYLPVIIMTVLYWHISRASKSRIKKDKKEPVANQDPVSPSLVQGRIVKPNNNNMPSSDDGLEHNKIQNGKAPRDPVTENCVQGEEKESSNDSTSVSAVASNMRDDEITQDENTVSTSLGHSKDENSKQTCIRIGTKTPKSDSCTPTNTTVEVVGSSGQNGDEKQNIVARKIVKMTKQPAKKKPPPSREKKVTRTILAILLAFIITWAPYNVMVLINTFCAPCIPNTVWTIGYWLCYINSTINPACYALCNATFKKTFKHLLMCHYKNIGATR

[3] = target: T2, C-C chemokine receptor type 4 (Homo sapiens, UniProt P51679); assay type: cell membranes, Membrane; details: chem-1; also: in other assays of this panel Not Active means under 50% inhibition at 10 µM
T2 sequence (P51679 whole entry): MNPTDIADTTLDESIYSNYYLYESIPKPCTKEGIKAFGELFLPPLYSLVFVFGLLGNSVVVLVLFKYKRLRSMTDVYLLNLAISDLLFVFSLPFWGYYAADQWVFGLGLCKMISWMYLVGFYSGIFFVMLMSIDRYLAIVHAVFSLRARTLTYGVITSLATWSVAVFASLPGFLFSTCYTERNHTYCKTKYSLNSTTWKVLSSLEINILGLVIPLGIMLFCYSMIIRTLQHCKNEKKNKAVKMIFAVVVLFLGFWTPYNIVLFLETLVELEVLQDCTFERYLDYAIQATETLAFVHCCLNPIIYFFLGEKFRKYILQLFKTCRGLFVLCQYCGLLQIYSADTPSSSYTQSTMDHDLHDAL

Cytochrome P450 1A2 = target: T3, Cytochrome P450 1A2 (Homo sapiens, UniProt P05177); details: bti-tn-5b1-4; also: in other assays of this panel Not Active means under 50% inhibition at 10 µM
T3 sequence (P05177 whole entry): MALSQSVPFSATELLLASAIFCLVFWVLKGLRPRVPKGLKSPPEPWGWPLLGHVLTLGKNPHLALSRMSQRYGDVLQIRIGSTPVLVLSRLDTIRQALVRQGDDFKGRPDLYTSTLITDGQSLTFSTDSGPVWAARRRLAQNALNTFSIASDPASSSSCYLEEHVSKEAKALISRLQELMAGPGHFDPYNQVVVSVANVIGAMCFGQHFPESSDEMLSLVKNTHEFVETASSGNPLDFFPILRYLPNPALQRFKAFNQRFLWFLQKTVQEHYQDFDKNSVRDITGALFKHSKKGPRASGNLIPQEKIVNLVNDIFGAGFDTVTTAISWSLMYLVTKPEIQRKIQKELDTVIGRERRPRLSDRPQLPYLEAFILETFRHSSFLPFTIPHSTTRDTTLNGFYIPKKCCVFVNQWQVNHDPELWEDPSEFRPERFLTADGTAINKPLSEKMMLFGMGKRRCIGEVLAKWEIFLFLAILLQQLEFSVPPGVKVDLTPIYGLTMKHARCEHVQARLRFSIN

Cannabinoid receptor 1 = Cannabinoid receptor 1 (Homo sapiens, UniProt P21554); assay type: cell membranes, Chem-1, Membrane; details: chem-1; also: in other assays of this panel Not Active means under 50% inhibition at 10 µM
[4] = DRUGMATRIX: GABAA, Muscimol, Central radioligand binding (ligand: [3H] Muscimol); assay type: cell membranes, Rattus norvegicus, Wistar, Brain, Membrane; details: Not Active = under 50% inhibition at 10 µM

Chain of Cannabinoid receptor 1 (P21554 whole entry): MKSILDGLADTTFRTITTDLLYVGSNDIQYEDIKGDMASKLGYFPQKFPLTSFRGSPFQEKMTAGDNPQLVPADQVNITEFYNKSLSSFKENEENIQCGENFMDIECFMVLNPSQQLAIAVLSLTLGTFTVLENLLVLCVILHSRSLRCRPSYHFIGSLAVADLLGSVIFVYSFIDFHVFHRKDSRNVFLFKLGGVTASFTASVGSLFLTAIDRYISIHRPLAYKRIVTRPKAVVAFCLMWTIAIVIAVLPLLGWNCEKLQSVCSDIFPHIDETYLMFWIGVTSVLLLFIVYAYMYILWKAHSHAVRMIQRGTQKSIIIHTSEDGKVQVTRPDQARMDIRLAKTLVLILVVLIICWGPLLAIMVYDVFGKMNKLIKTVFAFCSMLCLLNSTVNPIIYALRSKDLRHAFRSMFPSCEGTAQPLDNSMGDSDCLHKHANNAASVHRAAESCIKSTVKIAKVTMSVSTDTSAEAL
Chain of Cytochrome P450 2D6 (P10635 whole entry): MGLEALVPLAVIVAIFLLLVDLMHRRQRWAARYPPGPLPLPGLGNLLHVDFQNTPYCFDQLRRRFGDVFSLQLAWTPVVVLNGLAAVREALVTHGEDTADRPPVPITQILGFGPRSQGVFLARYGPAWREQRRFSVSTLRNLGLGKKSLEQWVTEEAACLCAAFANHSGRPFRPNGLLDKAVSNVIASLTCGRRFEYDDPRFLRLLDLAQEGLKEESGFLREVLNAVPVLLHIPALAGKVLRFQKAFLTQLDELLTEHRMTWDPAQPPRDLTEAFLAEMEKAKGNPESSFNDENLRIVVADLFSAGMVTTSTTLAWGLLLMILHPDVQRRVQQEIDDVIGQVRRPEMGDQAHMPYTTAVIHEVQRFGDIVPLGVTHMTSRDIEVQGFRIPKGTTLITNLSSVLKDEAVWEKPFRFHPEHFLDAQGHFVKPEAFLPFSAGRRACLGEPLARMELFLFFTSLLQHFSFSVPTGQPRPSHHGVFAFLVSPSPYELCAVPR
Chain of Mitogen-activated protein kinase 1 (P28482 whole entry): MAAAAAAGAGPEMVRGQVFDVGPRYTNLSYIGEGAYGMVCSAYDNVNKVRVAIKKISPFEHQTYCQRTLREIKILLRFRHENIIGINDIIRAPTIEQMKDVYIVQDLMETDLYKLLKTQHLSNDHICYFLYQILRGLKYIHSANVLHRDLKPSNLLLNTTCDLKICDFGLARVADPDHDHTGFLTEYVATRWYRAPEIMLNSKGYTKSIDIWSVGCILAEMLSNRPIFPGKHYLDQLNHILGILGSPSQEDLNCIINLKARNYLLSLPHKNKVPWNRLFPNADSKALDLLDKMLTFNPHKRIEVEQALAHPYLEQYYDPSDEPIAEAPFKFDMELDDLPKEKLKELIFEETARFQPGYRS

Cc1nccn1CC1CCc2c(c3ccccc3n2C)C1=O (centres undefined) [ONDANSETRON]
Not Active: IC50 (Cytochrome P450 2D6) | Ki (Cytochrome P450 2D6) | IC50 [1] | IC50 [2] | IC50 [3] | IC50 (Cytochrome P450 1A2) | Ki (Cytochrome P450 1A2) | IC50 (Cannabinoid receptor 1) | IC50 [4] | Ki [4]

CCOC(=O)[C@H](CCc1ccccc1)N[C@H]1CCc2ccccc2N(CC(=O)O)C1=O [BENAZEPRIL]
Not Active: IC50 (Cytochrome P450 2D6) | Ki (Cytochrome P450 2D6) | IC50 [1] | IC50 [2] | IC50 [3] | IC50 (Cytochrome P450 1A2) | Ki (Cytochrome P450 1A2) | IC50 (Cannabinoid receptor 1) | IC50 [4] | Ki [4]

CCCCOc1ccc(OCCCN2CCOCC2)cc1 [PRAMOXINE]
Not Active: IC50 (Cytochrome P450 2D6) | Ki (Cytochrome P450 2D6) | IC50 [1] | IC50 [2] | IC50 [3] | IC50 (Cytochrome P450 1A2) | Ki (Cytochrome P450 1A2) | IC50 (Cannabinoid receptor 1) | IC50 [4] | Ki [4]

COc1cccc2c1C(=O)c1c(O)c3c(c(O)c1C2=O)C[C@@](O)(C(=O)CO)C[C@@H]3O[C@H]1C[C@H](N)[C@H](O)[C@H](C)O1 [DOXORUBICIN]
Not Active: IC50 (Cytochrome P450 2D6) | Ki (Cytochrome P450 2D6) | IC50 [1] | IC50 [2] | IC50 [3] | IC50 (Cytochrome P450 1A2) | Ki (Cytochrome P450 1A2) | IC50 (Cannabinoid receptor 1) | IC50 [4] | Ki [4]

C[C@H]1C[C@H]2[C@@H]3CCC4=CC(=O)C=C[C@]4(C)[C@@]3(Cl)[C@@H](O)C[C@]2(C)[C@@]1(O)C(=O)CO [BECLOMETHASONE]
Not Active: IC50 (Cytochrome P450 2D6) | Ki (Cytochrome P450 2D6) | IC50 [1] | IC50 [2] | IC50 [3] | IC50 (Cytochrome P450 1A2) | Ki (Cytochrome P450 1A2) | IC50 (Cannabinoid receptor 1) | IC50 [4] | Ki [4]

CCN(CC)CCOC(=O)c1ccc(N)cc1 [PROCAINE]
Not Active: IC50 (Cytochrome P450 2D6) | Ki (Cytochrome P450 2D6) | IC50 [1] | IC50 [2] | IC50 [3] | IC50 (Cytochrome P450 1A2) | Ki (Cytochrome P450 1A2) | IC50 (Cannabinoid receptor 1) | IC50 [4] | Ki [4]

O=C(O)Cc1ccccc1Nc1c(Cl)cccc1Cl [DICLOFENAC]
Not Active: IC50 (Cytochrome P450 2D6) | Ki (Cytochrome P450 2D6) | IC50 [1] | IC50 [2] | IC50 [3] | IC50 (Cytochrome P450 1A2) | Ki (Cytochrome P450 1A2) | IC50 (Cannabinoid receptor 1) | IC50 [4] | Ki [4]

CC(C)[C@H]1CC[C@H](C(=O)N[C@H](Cc2ccccc2)C(=O)O)CC1 [NATEGLINIDE]
Not Active: IC50 (Cytochrome P450 2D6) | Ki (Cytochrome P450 2D6) | IC50 [1] | IC50 [2] | IC50 [3] | IC50 (Cytochrome P450 1A2) | Ki (Cytochrome P450 1A2) | IC50 (Cannabinoid receptor 1) | IC50 [4] | Ki [4]

Nc1c(CC(=O)O)cccc1C(=O)c1ccc(Br)cc1 [BROMFENAC]
Not Active: IC50 (Cytochrome P450 2D6) | Ki (Cytochrome P450 2D6) | IC50 [1] | IC50 [2] | IC50 [3] | IC50 (Cytochrome P450 1A2) | Ki (Cytochrome P450 1A2) | IC50 (Cannabinoid receptor 1) | IC50 [4] | Ki [4]

COc1ccc2c(c1)c(CC(=O)O)c(C)n2C(=O)c1ccc(Cl)cc1 [INDOMETHACIN]
Not Active: IC50 (Cytochrome P450 2D6) | Ki (Cytochrome P450 2D6) | IC50 [1] | IC50 [2] | IC50 [3] | IC50 (Cytochrome P450 1A2) | Ki (Cytochrome P450 1A2) | IC50 (Cannabinoid receptor 1) | IC50 [4] | Ki [4]

C[C@H]1O[C@@H](O[C@H]2[C@@H](O)C[C@H](O[C@H]3[C@@H](O)C[C@H](O[C@H]4CC[C@@]5(C)[C@H](CC[C@@H]6[C@@H]5CC[C@]5(C)[C@@H](C7=CC(=O)OC7)CC[C@]65O)C4)O[C@@H]3C)O[C@@H]2C)C[C@H](O)[C@@H]1O [DIGITOXIN]
Not Active: IC50 (Cytochrome P450 2D6) | Ki (Cytochrome P450 2D6) | IC50 [1] | IC50 [2] | IC50 [3] | IC50 (Cytochrome P450 1A2) | Ki (Cytochrome P450 1A2) | IC50 (Cannabinoid receptor 1) | IC50 [4] | Ki [4]

C[C@]12CC[C@@H]3c4ccc(O)cc4CC[C@H]3[C@@H]1CC[C@@H]2O [ESTRADIOL]
Not Active: IC50 (Cytochrome P450 2D6) | Ki (Cytochrome P450 2D6) | IC50 [1] | IC50 [2] | IC50 [3] | IC50 (Cytochrome P450 1A2) | Ki (Cytochrome P450 1A2) | IC50 (Cannabinoid receptor 1) | IC50 [4] | Ki [4]

CCOC(=O)C1=C(C)NC(C)=C(C(=O)OC)C1c1cccc([N+](=O)[O-])c1 (centres undefined) [NITRENDIPINE]
Not Active: IC50 (Cytochrome P450 2D6) | Ki (Cytochrome P450 2D6) | IC50 [1] | IC50 [2] | IC50 [3] | IC50 (Cytochrome P450 1A2) | Ki (Cytochrome P450 1A2) | IC50 (Cannabinoid receptor 1) | IC50 [4] | Ki [4]

CN(C)/N=N/c1[nH]cnc1C(N)=O [DACARBAZINE]
Not Active: IC50 (Cytochrome P450 2D6) | Ki (Cytochrome P450 2D6) | IC50 [1] | IC50 [2] | IC50 [3] | IC50 (Cytochrome P450 1A2) | Ki (Cytochrome P450 1A2) | IC50 (Cannabinoid receptor 1) | IC50 [4] | Ki [4]

COc1ccccc1C(=O)N1CCC(Cc2ccccc2)CC1
Not Active: IC50 (Cytochrome P450 2D6) | Ki (Cytochrome P450 2D6) | IC50 [1] | IC50 [2] | IC50 [3] | IC50 (Cytochrome P450 1A2) | Ki (Cytochrome P450 1A2) | IC50 (Cannabinoid receptor 1) | IC50 [4] | Ki [4]

C=C1CC[C@H](O)C/C1=C/C=C1\CCC[C@]2(C)[C@@H]([C@H](C)CCCC(C)C)CC[C@@H]12 [CHOLECALCIFEROL]
Not Active: IC50 (Cytochrome P450 2D6) | Ki (Cytochrome P450 2D6) | IC50 [1] | IC50 [2] | IC50 [3] | IC50 (Cytochrome P450 1A2) | Ki (Cytochrome P450 1A2) | IC50 (Cannabinoid receptor 1) | IC50 [4] | Ki [4]

COc1cc2c(c3oc(=O)c4c(c13)CCC4=O)[C@@H]1C=CO[C@@H]1O2 [AFLATOXIN]
Not Active: IC50 (Cytochrome P450 2D6) | Ki (Cytochrome P450 2D6) | IC50 [1] | Ki [1] | IC50 [2] | Ki [2] | IC50 [3] | Ki [3] | IC50 (Cytochrome P450 1A2) | Ki (Cytochrome P450 1A2) | IC50 (Cannabinoid receptor 1) | Ki (Cannabinoid receptor 1) | IC50 [4] | Ki [4]

CC(C)Cc1ccc(C(C)C(=O)O)cc1 (centres undefined) [IBUPROFEN]
Not Active: IC50 (Cytochrome P450 2D6) | Ki (Cytochrome P450 2D6) | IC50 [1] | IC50 [2] | IC50 [3] | IC50 (Cytochrome P450 1A2) | Ki (Cytochrome P450 1A2) | IC50 (Cannabinoid receptor 1) | IC50 [4] | Ki [4]

CC(C)(C(=O)c1cccnc1)c1cccnc1 [METYRAPONE]
Not Active: IC50 (Cytochrome P450 2D6) | Ki (Cytochrome P450 2D6) | IC50 [1] | IC50 [2] | IC50 [3] | IC50 (Cytochrome P450 1A2) | Ki (Cytochrome P450 1A2) | IC50 (Cannabinoid receptor 1) | IC50 [4] | Ki [4]

Cc1ncc([N+](=O)[O-])n1CCO [METRONIDAZOLE]
Not Active: IC50 (Cytochrome P450 2D6) | Ki (Cytochrome P450 2D6) | IC50 [1] | IC50 [2] | IC50 [3] | IC50 (Cytochrome P450 1A2) | Ki (Cytochrome P450 1A2) | IC50 (Cannabinoid receptor 1) | IC50 [4] | Ki [4]

C[C@@H](O)[C@H](CO)NC(=O)[C@@H]1CSSC[C@H](NC(=O)[C@H](N)Cc2ccccc2)C(=O)N[C@@H](Cc2ccccc2)C(=O)N[C@H](Cc2c[nH]c3ccccc23)C(=O)N[C@@H](CCCCN)C(=O)N[C@@H]([C@@H](C)O)C(=O)N1 (H-[dF]CF[dW]KTC-{Threoninol(2S,3R)}; disulfide 2-7)
Not Active: IC50 (Cytochrome P450 2D6) | Ki (Cytochrome P450 2D6) | IC50 [1] | IC50 [2] | IC50 [3] | IC50 (Cytochrome P450 1A2) | Ki (Cytochrome P450 1A2) | IC50 (Cannabinoid receptor 1) | IC50 [4] | Ki [4]
